From patent US20120277368A1, “AQUEOUS DISPERSION PRESSURE-SENSITIVE ADHESIVE COMPOSITION AND PRESSURE-SENSITIVE ADHESIVE SHEET” (NITTO DENKO CORPORATION, priority 2011, published 2012)

Assay: Solubility in water (25° C.) of crosslinking agent
Format: physicochemical
Procedure: Furthermore, the compound (B) is a water-soluble compound. […] (parts by weight of the compound capable of being dissolved per 100 parts by weight of water) is 1 g or more (1 g/100 g or more), preferably 10 g or more (10 g/100 g or more), and more preferably 30 g or more (30 g/100 g or more). The solubility of the compound (B) in water can be measured, for example, as follows.
Water (25° C.) and a compound (B), having the same weight, are mixed by using a stirrer under the conditions of a rotation speed of 300 rpm and 10 minutes, and the mixture is separated into an aqueous phase and an oil phase by centrifugation. The aqueous phase is then collected and dried at 120° C. for 1 hour, and the nonvolatile content (parts by weight of the nonvolatile component per 100 parts by weight of water) in the aqueous phase is determined from the weight loss on drying.

In the case of `C1OC1CN(CC1CO1)CC1CO1` (stereo not shown) [N,N,N-tri(2,3-epoxypropyl)amine], the “solubility in water (25° C.)” value is reported as 100 g/100 g.
